# Experimental data published in patent US7141596B2, “Inhibitors of proteins that bind phosphorylated molecules” (Incyte Corporation, priority 2003, dated 2006).
# Target: T1, human PTP1B catalytic domain (residues 1–298) (Homo sapiens, UniProt P18031)
# T1 construct: The catalytic domain (residues 1–298) of human PTP1B; His tag (N); made in house; host or cells: E. coli
# T1 sequence (P18031 1-298): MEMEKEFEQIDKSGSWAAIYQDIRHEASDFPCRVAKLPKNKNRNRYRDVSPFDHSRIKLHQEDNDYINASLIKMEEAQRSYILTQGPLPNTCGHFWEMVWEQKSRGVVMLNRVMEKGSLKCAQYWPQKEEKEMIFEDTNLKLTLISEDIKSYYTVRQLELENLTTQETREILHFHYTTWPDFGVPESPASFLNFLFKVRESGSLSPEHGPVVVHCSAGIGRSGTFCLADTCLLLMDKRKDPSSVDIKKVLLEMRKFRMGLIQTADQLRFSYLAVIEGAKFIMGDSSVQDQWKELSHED
# Assay: hPTP1B in vitro activity assay (pNPP dephosphorylation)
# Format: biochemical
# Details: Isomer 1 compared with Isomer 2 (5S/5R diastereomers separated by chiral HPLC)
# Description: Compounds were serially diluted in DMSO and spotted into the assay plate. Both the enzyme and substrate were diluted into the assay buffer containing 25 mM tris-bis-propone (pH 7.0 @ rt) and 0.1 mg/ml of BSA. 40 of μL enzyme solution was added to the assay plate containing compounds and was incubated for 30 minutes. 40 μL of substrate solution was then added to the assay plate to initiate the reaction. The initial reaction rates of the dephosphorylation of p-nitrophenylphosphate to p-nitrophenol are measured by monitoring absorbance at 410 nm on a SpectraMax for 15–30 min.
smiles,measurement,value
"O=C(O)C(F)(F)F.O=C(O)C(F)(F)F.O=C1C[C@@H](c2ccc(C[C@H](Nc3nc4cc(F)ccc4s3)c3nc4ccccc4[nH]3)cc2)S(=O)(=O)N1.O=C1C[C@H](c2ccc(C[C@H](Nc3nc4cc(F)ccc4s3)c3nc4ccccc4[nH]3)cc2)S(=O)(=O)N1 (single isomer, unassigned; isomer 1) [4.179 Isomer 1]",relative biological activity of the separated diastereomers in the enzyme assay,more biologically active
